Experimental data: US20230414607A1, “METHODS OF TREATMENT” (BOW RIVER LLC, priority 2017, published 2023)

Test system: not listed separately
Experiment: AUC and Cmax target safe levels of CYP3A4 substrate drugs (Table 1)
Conditions: component of ivacaftor/tezacaftor
Text: In various embodiments, the “Target safe levels” are non-limiting examples of the upper limit of fold change or percent of baseline where in some embodiments the benefits of treating the patient for the condition or disease for which the CYP3A4 substrate drug is indicated outweigh the risks associated with the effects of a drug-drug interaction. […] For purposes of the present methods, the blood plasma levels measured during co-administration of the CYP3A4 substrate drug with […] may be used to estimate the posaconazole DDI decay curve, e.g., using equation 1.

| AUC target safe level, Fold change | AUC target safe level, Percent of baseline | Cmax target safe level, Fold change | Cmax target safe level, Percent of baseline | Compound |
| --- | --- | --- | --- | --- |
| 2.95; fold | 295%; | 2.47; fold | 247%; | CC(C)(C)c1cc(C(C)(C)C)c(NC(=O)c2c[nH]c3ccccc3c2=O)cc1O [ivacaftor] |

Same assay, conditions: human

| AUC target safe level, Fold change | AUC target safe level, Percent of baseline | Cmax target safe level, Fold change | Cmax target safe level, Percent of baseline | Compound |
| --- | --- | --- | --- | --- |
| 3.5 fold | 350% |  |  | CN(C(=O)c1ccccc1)[C@@H]1C[C@H]2O[C@@](C)([C@@H]1O)n1c3ccccc3c3c4c(c5c6ccccc6n2c5c31)C(=O)NC4 [CGP62221] |
| 2.1 fold | 210% | 1.7 fold | 170% | COc1cc2c(cc1OC)[C@H]1C[C@@H](O)[C@H](CC(C)C)CN1CC2 [[+]-α-HTBZ] |
| 1.24 fold | 124% | 1.38 fold | 138% | CNC(=O)c1ccc(N2C(=S)N(c3cnc(C#N)c(C(F)(F)F)c3)C(=O)C23CCC3)cc1F [apalutamide] |
| 2 fold | 200% | 1.2 fold | 120% | O=c1ccc2ccc(OCCCCN3CCN(c4cccc5sccc45)CC3)cc2[nH]1 [brexpiprazole] |
|  | 400% |  |  | CN(C)C(=O)N[C@H]1CC[C@H](CCN2CCN(c3cccc(Cl)c3Cl)CC2)CC1 [cariprazine] |
| 1.53 fold | 153% | 1.03 fold | 103% | COc1c(OCCCN2CCOCC2)ccc2c1N=C(NC(=O)c1cnc(N)nc1)N1CCN=C21 [copanlisib] |
| 3 fold | 300% |  |  | CC(=O)OCC(=O)[C@@]12N=C(C)O[C@@H]1C[C@H]1[C@@H]3CCC4=CC(=O)C=C[C@]4(C)[C@H]3[C@@H](O)C[C@@]12C [deflazacort] |
| 2 fold | 200% | 1.7 fold | 170% | C[C@H](Nc1ncnc2[nH]cnc12)c1cc2cccc(Cl)c2c(=O)n1-c1ccccc1 [duvelisib] |
| 2.2 fold | 220% | 1.77 fold | 177% | COc1cccc(-c2c(C)n(Cc3c(F)cccc3C(F)(F)F)c(=O)n(C[C@H](NCCCC(=O)O)c3ccccc3)c2=O)c1F [elagolix sodium] |
| 1.34 fold | 134% | 1.05 fold | 105% | COc1cc(OC)cc(N(CCNC(C)C)c2ccc3ncc(-c4cnn(C)c4)nc3c2)c1 [erdafitinib] |
| 2.2 fold | 220% | 1.20 fold | 120% | CCc1nc(C(N)=O)c(Nc2ccc(N3CCC(N4CCN(C)CC4)CC3)c(OC)c2)nc1NC1CCOCC1 [gilteritinib] |
| 2.4 fold | 240% | 1.4 fold | 140% | CN1CC[C@@H](NC(=O)Nc2ccc(C#N)cc2)C[C@@H]1c1nc2ccccc2[nH]1 [glasdegib] |
|  | 300% |  |  | C=CC(=O)N1CCC[C@@H](n2nc(-c3ccc(Oc4ccccc4)cc3)c3c(N)ncnc32)C1 [ibrutinib] |
| 10.4 fold | 1040% |  |  | CO[C@@H]1[C@H](N(C)C(=O)c2ccccc2)C[C@H]2O[C@]1(C)n1c3ccccc3c3c4c(c5c6ccccc6n2c5c31)C(=O)NC4 [midostaurin] |
| 1.73 fold | 173% | 1.62 fold | 162% | Cc1[nH]c2ccccc2c1CCNCc1ccc(/C=C/C(=O)NO)cc1 [panobinostat] |
| 3 fold | 300% | 1.5 fold | 150% | CC(C)COc1ccc(CNC(=O)N(Cc2ccc(F)cc2)C2CCN(C)CC2)cc1 [pimavanserin] |
| 1.91 fold | 191% | 1.33 fold | 133% | N#CC[C@H](C1CCCC1)n1cc(-c2ncnc3[nH]ccc23)cn1 [ruxolitinib] |
| 2.0 fold | 200% |  |  | CC(C)(CO)c1cc2cc(NC(=O)C3(c4ccc5c(c4)OC(F)(F)O5)CC3)c(F)cc2n1C[C@@H](O)CO [tezacaftor] |
|  | 175% |  |  | C[C@@H]1CCN(C(=O)CC#N)C[C@@H]1N(C)c1ncnc2[nH]ccc12 [tofacitinib] |
| val: 2.2 fold | val: 220% | val: 1.6 fold | val: 160% | COc1cc2c(cc1OC)[C@H]1C[C@@H](OC(=O)[C@@H](N)C(C)C)[C@H](CC(C)C)CN1CC2 [valbenazine] |

Same assay, conditions: upper limit where benefits outweigh risks; approximation, can vary by about ±25%

| AUC target safe level, Fold change [fold] | AUC target safe level, Percent of baseline [%] | Cmax target safe level, Fold change [fold] | Cmax target safe level, Percent of baseline [%] | Compound |
| --- | --- | --- | --- | --- |
| 1.7 | 170 | 1.4 | 140 | O=C1CCc2ccc(OCCCCN3CCN(c4cccc(Cl)c4Cl)CC3)cc2N1 [aripiprazole] |
| 3 | 300 | 2.7 | 270 | CC(C)(C)c1cc(C(C)(C)C)c(NC(=O)c2c[nH]c3ccccc3c2=O)cc1O [ivacaftor] |
| 1.51 | 151 | 1.49 | 149 | CCN(CC)CCNC(=O)c1c(C)[nH]c(/C=C2\C(=O)Nc3ccc(F)cc32)c1C [sunitinib] |

| Compound | AUC target safe level, Fold change [fold] | AUC target safe level, Percent of baseline [%] | Cmax target safe level, Fold change [fold] | Cmax target safe level, Percent of baseline [%] |
| --- | --- | --- | --- | --- |
| CC(C)(NC(=O)C1=C(O)[C@@H]2Oc3c(O)ccc4c3[C@@]23CCN(CC2CC2)[C@H](C4)[C@]3(O)C1)c1nc(-c2ccccc2)no1 [naldemedine] | 1.9 | 190 | 1.38 | 138 |

Biological target: CYP3A4 (Homo sapiens, UniProt P08684)
Sequence (P08684 whole entry): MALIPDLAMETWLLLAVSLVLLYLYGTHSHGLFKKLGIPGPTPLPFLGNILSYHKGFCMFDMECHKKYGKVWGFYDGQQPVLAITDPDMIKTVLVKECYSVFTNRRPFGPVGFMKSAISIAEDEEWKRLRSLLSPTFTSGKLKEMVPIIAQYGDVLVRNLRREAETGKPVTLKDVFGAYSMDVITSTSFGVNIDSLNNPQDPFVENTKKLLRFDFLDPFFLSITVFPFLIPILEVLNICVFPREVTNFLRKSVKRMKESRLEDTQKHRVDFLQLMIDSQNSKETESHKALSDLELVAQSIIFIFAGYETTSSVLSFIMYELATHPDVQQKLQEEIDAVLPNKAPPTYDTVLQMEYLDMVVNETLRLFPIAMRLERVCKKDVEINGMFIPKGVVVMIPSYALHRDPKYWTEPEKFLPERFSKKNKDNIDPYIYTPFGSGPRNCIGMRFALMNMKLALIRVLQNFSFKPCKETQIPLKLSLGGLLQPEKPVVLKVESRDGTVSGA
Experiment: not given
Conditions: co-administered with a strong CYP3A4 inhibitor (posaconazole, itraconazole, ritonavir, or ketoconazole); cited from earlier work

| Compound | AUC co-administration levels, Fold change | AUC co-administration levels, Percent of baseline |
| --- | --- | --- |
| CCC(=O)O[C@]1(C(=O)SCF)[C@H](C)C[C@H]2[C@@H]3C[C@H](F)C4=CC(=O)C=C[C@]4(C)[C@@]3(F)[C@@H](O)C[C@@]21C [fluticasone propionate] | 1.9; fold | 190%; |

Same assay, conditions: in vivo; cited from earlier work

| Compound | AUC co-administration levels, Fold change | AUC co-administration levels, Percent of baseline | Cmax co-administration levels, Fold change | Cmax co-administration levels, Percent of baseline | elevation of baseline AUC when coadministered with posaconazole (percent of baseline) [%] |
| --- | --- | --- | --- | --- | --- |
| COc1cc(Nc2c(C#N)cnc3cc(OCCCN4CCN(C)CC4)c(OC)cc23)c(Cl)cc1Cl [bosutinib] | 2 fold | 200% | 1.5 fold | 150% |  |
| COc1cc(N2CCC(N3CCN(C)CC3)CC2)ccc1Nc1ncc(Cl)c(Nc2ccccc2P(C)(C)=O)n1 [brigatinib] | 2.01 fold | 201% | 1.21 fold | 121% |  |
| CO[C@H]1C(=O)[C@]2(C)[C@@H](OC)C[C@H]3OC[C@@]3(OC(C)=O)[C@H]2[C@H](OC(=O)c2ccccc2)[C@]2(O)C[C@H](OC(=O)[C@H](O)[C@@H](NC(=O)OC(C)(C)C)c3ccccc3)C(C)=C1C2(C)C [cabazitaxel] | 1.25 fold | 125% |  |  |  |
| O=C(c1ccc(F)c(F)c1Nc1ccc(I)cc1F)N1CC(O)([C@@H]2CCCCN2)C1 [cobimetinib] | 6.7 fold | 670% | 3.2 fold | 320% |  |
| CC(C)(C)c1nc(-c2cccc(NS(=O)(=O)c3c(F)cccc3F)c2F)c(-c2ccnc(N)n2)s1 [dabrafenib] | 1.71 fold | 171% |  |  |  |
| COC(=O)N[C@H](C(=O)N1CCC[C@H]1c1nc(-c2ccc3c(c2)O[C@@H](c2ccccc2)n2c-3cc3cc(-c4c[nH]c([C@@H]5CCCN5C(=O)[C@@H](NC(=O)OC)C(C)C)n4)ccc32)c[nH]1)C(C)C [elbasvir] | EBR: 1.8; fold | 180%; | 1.29; fold | 129%; |  |
| COC(=O)N[C@@H](C)CNc1nccc(-c2cn(C(C)C)nc2-c2cc(Cl)cc(NS(C)(=O)=O)c2F)n1 [encorafenib] | 3 fold | 300% | 1.45 fold | 145% | 300 |
| O=c1[nH]c2ccccc2n1CCN1CCN(c2cccc(C(F)(F)F)c2)CC1 [flibanserin] | 1.4 fold | 140% | 1.1 fold | 110% |  |
| C=C[C@@H]1C[C@]1(NC(=O)[C@@H]1C[C@@H]2CN1C(=O)[C@H](C(C)(C)C)NC(=O)O[C@@H]1C[C@H]1CCCCCc1nc3ccc(OC)cc3nc1O2)C(=O)NS(=O)(=O)C1CC1.O [grazoprevir] | GZR: 3.02 fold | 302% | 1.13 fold | 113% |  |
